Source: US10287298B2, “Nitrogen-containing analogs of salinomycin, synthesis and use against cancer stem cells and malaria” (Centre National de la Recherche Scientifique (CNRS), priority 2014, dated 2019)
Like-named read-outs stand apart in the source and are kept apart here.

Columns and labels:
HMLER CD24− cells [1] = assay: Cell proliferation and formation of mammospheres; format: cell-based, Human
Description: FIG. 2 is a representative phase contrast photomicrographs of mammospheres formed after 11 days in the absence of any added compound (Control) or in the presence of a defined amount of salinomycine, AM5, AM9 or AM13. […] The size of the mammospheres is correlated with progenitor cell proliferation, whereas the number of mammospheres formed after serial passages at clonal density is correlated with the self-renewal capacity of primitive Cancer Stem Cells. […]
FIG. 9 represents images of the third generation of mammospheres formed from individual HMLER CD24low cells treated during 7 days with the indicated drug. The size of the mammospheres is correlated with progenitor cell proliferation capacity, whereas the number of mammospheres formed after serial passages at clonal density is correlated with the self-renewal capacity of primitive Cancer Stem Cells.
AM5, AM9, AM13 and salinomycine were assessed for their capability to inhibit cell proliferation and formation of mammospheres. […]
AM5 and AM23 and salinomycine were assessed for their capability to inhibit cell proliferation and formation of mammospheres.

HMLER ID2 = assay: Cell death IC50, Annexin V-FITC/PI flow cytometry; format: cell-based; details: Homo sapiens, read-out: IC50 HMLER ID2
Description: (§1) The cells were seeded in a 6-well plate at density 5.105 cells/well and cultured overnight. The cells were then treated with various concentration (15, 30, 100, 500, 1000 and 10.000 nM) of salinomycine, AM5 and AM23 for 72 h, 96 h and 108 h. After treatment, cell death was quantified using Annexin V-FITC/Propidium Iodide (PI) assay according to the manufacturer's protocol (FITC Annexin V Apoptosis Detection Kit II, 556570, BD Pharmingen™) and analyzed by a LSRFortessa™ flow cytometer (BD Bioscience, San Jose, Calif.). The data were processed using Cell Quest software (BD Biosciences). Dose-response cell death curves were determined for indicated time.
(§2) For tumor cells, the cells are classified in function of their sensitivity of drugs. Here, the most sensitive cells are incubated for 72 h, the middle sensitive cells for 96 h and the less sensitive or resistant cells are incubated for 108 h with drug at several concentrations.
(§3) Concentrations of 30 nM, 500 nm and 1 μM were used for determining the IC50 of drugs.
(§4) Intervals][…]] mean that IC50 is included in this interval with exclusion of the valor 30 nM.

HMLER shECAD = assay: Cell death IC50, Annexin V-FITC/PI flow cytometry; format: cell-based; details: Homo sapiens, read-out: IC50 HMLER shECAD
Description: as §1, §2, §3, §4

MDA-MB-361 = assay: Cell death IC50, Annexin V-FITC/PI flow cytometry; format: cell-based; details: Homo sapiens, read-out: IC50 MDA-MB-361
Description: as §1, §2, §3, §4

MCF-7 = assay: Cell death IC50, Annexin V-FITC/PI flow cytometry; format: cell-based; details: Homo sapiens, read-out: IC50 MCF-7
Description: as §1, §2, §3, §4

HBL100 = assay: Cell death IC50, Annexin V-FITC/PI flow cytometry; format: cell-based; details: Homo sapiens
Description: as §1, §2, §3, §4

HMLE W2 = assay: Cell death IC50, Annexin V-FITC/PI flow cytometry; format: cell-based; details: Homo sapiens, read-out: IC50 HMLE W2
Description: as §1, §2, §3, §4

BT549 = assay: Cell death IC50, Annexin V-FITC/PI flow cytometry; format: cell-based; details: Homo sapiens, read-out: IC50 BT549
Description: as §1, §2, §3, §4

MDA-MD-157 = assay: Cell death IC50, Annexin V-FITC/PI flow cytometry; format: cell-based; details: Homo sapiens, read-out: IC50 MDA-MD-157
Description: as §1, §2, §3, §4

BT20 = assay: Cell death IC50, Annexin V-FITC/PI flow cytometry; format: cell-based; details: Homo sapiens, read-out: IC50 BT20
Description: as §1, §2, §3, §4

MDA-MB-134 = assay: Cell death IC50, Annexin V-FITC/PI flow cytometry; format: cell-based; details: Homo sapiens, read-out: IC50 MDA-MB-134
Description: as §1, §2, §3, §4

MDA-MB-231 = assay: Cell death IC50, Annexin V-FITC/PI flow cytometry; format: cell-based; details: Homo sapiens, read-out: IC50 MDA-MB-231
Description: as §1, §2, §3, §4

HMLER GFP = assay: Cell death IC50, Annexin V-FITC/PI flow cytometry; format: cell-based; details: Homo sapiens; 1rst sensibility (72 h)
Description: as §1, §2, §3, §4

HMLER CD24low = assay: Cell death IC50, Annexin V-FITC/PI flow cytometry; format: cell-based; details: Homo sapiens, read-out: IC50 HMLER CD24low
Description: as §1, §2, §3, §4

T47D = assay: Cell death IC50, Annexin V-FITC/PI flow cytometry; format: cell-based; details: Homo sapiens, Resistant (108 h)
Description: as §1, §2, §3, §4

Zr75.1 = assay: Cell death IC50, Annexin V-FITC/PI flow cytometry; format: cell-based; details: Homo sapiens, read-out: IC50 Zr75.1
Description: as §1, §2, §3, §4

Cell lines = assay: Apoptosis by Annexin V-FITC and PI staining with or without NAC; format: cell-based; details: 500 nM, 48 h
Description: FIG. 5: Salinomycine analogue—induced cell death is inhibited by the ROS scavenger N-acetylcysteine (NAC). Cell lines were incubated with or without 500 nM of Sal analogues for 48 h. Apoptosis was evaluated by Annexin V-FITC and PI staining, and FACS analysis. All data are expressed as means±s.d. from three individual experiments (*; P<0.05)
Salinomycine analogue-induced cell death is inhibited by the ROS scavenger N-acetylcysteine (NAC). Cell lines were incubated with or without 500 nM of Sal analogues for 48 h. Apoptosis was evaluated by AnnexinV-FITC and PI staining, and FACS analysis.

SW620 = assay: Cell death IC50, Annexin V-FITC/PI flow cytometry; format: cell-based; details: Homo sapiens, read-out: IC50 SW620
Description: as §1, §2, §3, §4
(§5) The SW620 and SW480 cell lines are from colon tumors.

SW480 = assay: Cell death IC50, Annexin V-FITC/PI flow cytometry; format: cell-based; details: Homo sapiens, read-out: IC50 SW480
Description: as §1, §2, §3, §4, §5

HMLER CD24− cells [2] = assay: Cell viability assay (CellTiter-Blue), IC50 assessment; format: cell-based, Human; details: for IC50: Homo sapiens, read-out: IC50 CD24−
Description: FIG. 1 represents viability of HMLER CD24− cells (full line) and HMLER CD24+ cells (dotted line) at different concentration of salinomycine (1A), AM5 […] or AM13 (1D).
Cell viability assay was carried out by plating 1000 cells per well in 96-well plates. NAC (2 mM, A9165 Sigma) or DFO (1 mM) were pretreated 2 hours prior to the compound treatment. CellTiter-Blue® Reagent (Promega; G3582) (20 μl/well) was added after 24, 48, or 72 hours treatment and cells were incubated for 1 hour before recording fluorescence (560(20)Ex/590(10)Em) using a Perkin Elmer Wallac 1420 Victor2 Microplate Reader.

[3] = third generation of mammospheres, HMLER CD24low cells treated 7 days

## C#CCN[C@@H]1C=C[C@]2(O[C@H]([C@@H](CC)C(=O)[C@@H](C)[C@@H](O)[C@H](C)C3O[C@@H](C(CC)C(=O)O)CC[C@@H]3C)[C@@H](C)C[C@H]2C)O[C@@]12CC[C@@](C)([C@H]1CC[C@](O)(CC)[C@H](C)O1)O2 (some centres unmarked) [AM5, Sal-Propargylamine]
HMLER CD24− cells [1]; at 30 nM
  inhibition of cell proliferation, efficacy in comparison with salinomycine: ten-fold improved efficacy
HMLER CD24− cells [1]; mammospheres after 11 days, low nanomolar concentrations
  number and size of mammosphere: reduced the number and the size of mammosphere
HMLER CD24− cells [1]; [3]
  number of mammospheres: reduced the number of mammospheres
  size of mammospheres: do not alter the tumor diameters
HMLER ID2; 1rst sensibility (72 h)
  IC50: > 1 µM
HMLER shECAD; 1rst sensibility (72 h)
  IC50: 0.03 to 0.5 µM
MDA-MB-361; MDA-MB-361, 2nd sensibility (96 h)
  IC50: 0.5 µM
MCF-7; MCF7, 1rst sensibility (72 h), ]30-500] excludes 30 nM
  IC50: 0.03 to 0.5 µM
HBL100; HBL-100, No tumoral, read-out: IC50 HBL100
  IC50: > 1 µM
HMLE W2; Immortalized
  IC50: > 1 µM
BT549; BT-549, Resistant (108 h)
  IC50: > 1 µM
MDA-MD-157; 2nd sensibility (96 h)
  IC50: 0.5 µM
BT20; BT-20, 3rd sensibility (108 h)
  IC50: 0.03 to 0.5 µM
MDA-MB-134; 2nd sensibility (96 h)
  IC50: 0.03 to 0.5 µM
MDA-MB-231; MDA-MB-231, 2nd sensibility (96 h)
  IC50: > 1 µM
HMLER GFP
  IC50: 1 µM
HMLER CD24low; 1rst sensibility (72 h)
  IC50: < 0.03 µM
T47D
  IC50: > 1 µM
Zr75.1; ZR-75-1, 1rst sensibility (72 h), ]30-500] excludes 30 nM
  IC50: 0.03 to 0.5 µM
Cell lines
  cell death (apoptosis) mechanism: induce cell death through lysosomal ROS production
SW620; SW-620, 3rd sensibility (108 h), colon tumor cells
  IC50: 0.03 to 0.5 µM
SW480; SW480, 3rd sensibility (108 h), colon tumor cells
  IC50: 0.03 to 0.5 µM
HMLER CD24− cells [2]; HMLER CD24− cells, cell viability
  IC50: 0.0849 µM
HMLER CD24− cells [2]; comparison of the IC50 results
  activity against CD24 cells compared with salinomycine: significantly improved activity

## CCC(C(=O)O)[C@H]1CC[C@H](C)C([C@@H](C)[C@H](O)[C@H](C)C(=O)[C@H](CC)[C@H]2O[C@]3(C=C[C@@H](O)[C@]4(CC[C@@](C)([C@H]5CC[C@](O)(CC)[C@H](C)O5)O4)O3)[C@H](C)C[C@@H]2C)O1 (some centres unmarked) [Salinomycine, Salinomycin]
HMLER CD24− cells [1]; [3]
  size of mammospheres: do not alter the tumor diameters
HMLER ID2; 72 h
  IC50: > 1 µM
HMLER shECAD; 72 h
  IC50: 0.03 to 0.5 µM
MDA-MB-361; MDA-MB-361, 96 h
  IC50: 0.5 µM
MCF-7; MCF7, 72 h
  IC50: 0.03 to 0.5 µM
HBL100; HBL-100, read-out: IC50 HBL100
  IC50: > 1 µM
HMLE W2
  IC50: > 1 µM
BT549; BT-549, 108 h
  IC50: > 1 µM
MDA-MD-157; 96 h
  IC50: 1 µM
BT20; BT-20, 108 h
  IC50: 0.5 µM
MDA-MB-134; 96 h
  IC50: 0.03 to 0.5 µM
MDA-MB-231; MDA-MB-231, 96 h
  IC50: > 1 µM
HMLER GFP
  IC50: 1 µM
HMLER CD24low; 72 h
  IC50: 0.03 to 0.5 µM
T47D
  IC50: > 1 µM
Zr75.1; ZR-75-1, 72 h
  IC50: 0.5 µM
Cell lines
  cell death (apoptosis) mechanism: induce cell death through lysosomal ROS production
SW620; SW-620, 108 h
  IC50: 0.5 to 1 µM
SW480; SW480, 108 h
  IC50: 0.03 to 0.5 µM
HMLER CD24− cells [2]
  IC50: 1.56 µM
